Assay results published in ChEMBL document CHEMBL1137024, “Acyl-CoA: cholesterol acyltransferase inhibitory activities of fatty acid amides isolated from Mylabris phalerate Pallas” (Bioorg Med Chem Lett, 2004).

Assays:
[1] = molecular target: T1, Sterol O-acyltransferase 1 (Rattus norvegicus, UniProt O70536); assay: Inhibitory activity against rat liver microsomal Acyl coenzyme A:cholesterol acyltransferase
T1 sequence (O70536 whole entry): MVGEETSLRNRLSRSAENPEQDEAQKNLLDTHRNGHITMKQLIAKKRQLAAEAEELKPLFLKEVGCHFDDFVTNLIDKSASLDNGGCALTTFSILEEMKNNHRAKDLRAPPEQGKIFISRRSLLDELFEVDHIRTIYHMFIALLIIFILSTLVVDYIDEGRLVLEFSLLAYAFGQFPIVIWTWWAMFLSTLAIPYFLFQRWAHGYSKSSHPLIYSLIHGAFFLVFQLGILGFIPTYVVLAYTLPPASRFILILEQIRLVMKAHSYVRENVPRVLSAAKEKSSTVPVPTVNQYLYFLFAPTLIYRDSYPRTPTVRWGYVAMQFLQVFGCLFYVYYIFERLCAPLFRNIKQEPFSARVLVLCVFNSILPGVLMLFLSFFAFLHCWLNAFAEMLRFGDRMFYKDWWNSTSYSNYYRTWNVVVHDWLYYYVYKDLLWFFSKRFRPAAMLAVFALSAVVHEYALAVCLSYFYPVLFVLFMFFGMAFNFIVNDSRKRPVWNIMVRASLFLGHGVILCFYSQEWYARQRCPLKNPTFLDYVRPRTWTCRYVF

[2] = molecular target: T2, Sterol O-acyltransferase 1 (Homo sapiens, UniProt P35610); assay: Inhibitory activity against human Acyl coenzyme A:cholesterol acyltransferase 1
T2 sequence (P35610 whole entry): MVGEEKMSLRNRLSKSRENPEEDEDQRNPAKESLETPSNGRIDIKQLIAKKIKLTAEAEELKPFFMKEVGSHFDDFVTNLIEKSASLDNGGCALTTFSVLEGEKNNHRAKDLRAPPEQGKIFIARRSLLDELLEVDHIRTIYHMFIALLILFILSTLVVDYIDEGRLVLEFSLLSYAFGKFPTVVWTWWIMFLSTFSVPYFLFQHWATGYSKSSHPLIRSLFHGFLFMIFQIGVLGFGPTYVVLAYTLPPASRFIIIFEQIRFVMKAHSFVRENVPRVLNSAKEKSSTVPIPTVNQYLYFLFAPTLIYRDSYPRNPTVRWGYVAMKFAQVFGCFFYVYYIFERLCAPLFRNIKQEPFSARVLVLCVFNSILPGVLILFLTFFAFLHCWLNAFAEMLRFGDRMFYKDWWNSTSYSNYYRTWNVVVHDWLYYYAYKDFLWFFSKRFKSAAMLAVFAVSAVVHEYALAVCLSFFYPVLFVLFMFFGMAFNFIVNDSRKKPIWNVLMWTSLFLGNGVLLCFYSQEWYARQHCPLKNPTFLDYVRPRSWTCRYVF

[3] = molecular target: Sterol O-acyltransferase 2 (Homo sapiens, UniProt O75908); assay: Inhibitory activity against human Acyl coenzyme A:cholesterol acyltransferase 2
Chain of Sterol O-acyltransferase 2 (O75908 whole entry, looked up): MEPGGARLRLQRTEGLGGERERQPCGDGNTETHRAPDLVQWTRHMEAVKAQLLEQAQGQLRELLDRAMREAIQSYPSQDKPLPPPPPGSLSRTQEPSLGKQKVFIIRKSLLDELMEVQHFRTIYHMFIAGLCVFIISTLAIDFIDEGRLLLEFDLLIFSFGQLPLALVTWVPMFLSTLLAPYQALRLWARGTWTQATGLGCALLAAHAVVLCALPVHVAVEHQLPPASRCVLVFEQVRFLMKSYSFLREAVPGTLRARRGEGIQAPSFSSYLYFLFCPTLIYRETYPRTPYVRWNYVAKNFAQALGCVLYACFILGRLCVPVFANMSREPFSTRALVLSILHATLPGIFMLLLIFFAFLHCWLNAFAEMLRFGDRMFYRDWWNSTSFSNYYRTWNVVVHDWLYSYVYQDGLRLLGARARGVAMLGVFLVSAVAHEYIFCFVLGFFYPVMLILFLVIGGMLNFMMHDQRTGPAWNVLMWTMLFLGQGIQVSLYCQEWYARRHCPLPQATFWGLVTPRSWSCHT

Row | IC50 [1] | IC50 [2] | IC50 [3] | Structure (SMILES)
1 | > 1000 µM | > 1000 µM | > 1000 µM | CCCCC/C=C\C/C=C\CCCCCCCC(=O)O [LINOLEIC ACID]
2 | > 1000 µM | > 1000 µM | > 1000 µM | CCCCCCCC/C=C\CCCCCCCC(=O)O [OLEIC ACID]

Row | Structure (SMILES) | IC50 [1] | IC50 [2] | IC50 [3]
3 | CC(=O)OC[C@@]1(C)[C@@H]2C[C@H](OC(C)=O)[C@@]3(C)Oc4cc(-c5cccnc5)oc(=O)c4[C@H](O)[C@@H]3[C@@]2(C)CC[C@@H]1OC(C)=O [PYRIPYROPENE A] | 0.17 µM |  | 
